This passage reports inhibition and IC50 results from patent publication US9029389B2 (Institut Pasteur Korea, priority 2011, dated 2015).

One may read the inhibition as the relative decrease from the control value, in per cent. The term IC50 denotes the concentration needed to halve the response being measured. Low readings indicate inhibition by little substance, high ones a need for much substance.

One assay addresses T1, Human 5-lipoxygenase (Homo sapiens, UniProt P09917).
T1 construct: purchased Cayman 60402; host or cells: insect cells
T1 sequence (P09917 1-674): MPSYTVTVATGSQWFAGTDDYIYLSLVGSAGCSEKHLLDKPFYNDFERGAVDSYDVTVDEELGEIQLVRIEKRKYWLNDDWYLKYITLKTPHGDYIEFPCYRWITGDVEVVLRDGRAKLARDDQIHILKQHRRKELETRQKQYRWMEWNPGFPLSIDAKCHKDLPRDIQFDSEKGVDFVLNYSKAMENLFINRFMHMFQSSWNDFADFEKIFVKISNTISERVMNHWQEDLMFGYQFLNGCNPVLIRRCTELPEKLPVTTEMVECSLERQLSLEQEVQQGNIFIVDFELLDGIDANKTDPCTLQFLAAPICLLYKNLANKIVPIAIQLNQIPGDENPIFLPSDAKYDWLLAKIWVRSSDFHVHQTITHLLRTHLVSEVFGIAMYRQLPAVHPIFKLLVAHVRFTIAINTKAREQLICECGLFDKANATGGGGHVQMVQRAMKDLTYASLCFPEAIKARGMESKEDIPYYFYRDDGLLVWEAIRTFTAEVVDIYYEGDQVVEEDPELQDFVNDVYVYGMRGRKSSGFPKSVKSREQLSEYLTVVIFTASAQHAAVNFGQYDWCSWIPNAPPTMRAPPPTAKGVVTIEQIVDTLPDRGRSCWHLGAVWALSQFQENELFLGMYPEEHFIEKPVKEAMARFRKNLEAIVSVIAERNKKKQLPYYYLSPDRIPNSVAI
In words: Activity of compounds against 5-LO enzyme (LTB4 measurement and/or fluorescence method). The class given is biochemical. Particulars: 5-LO, single concentration of 10 uM in duplicate. The method, then:
The activity of compounds against 5-LO were determined by measuring LTB4 (leukotriene B4) levels and/or by a fluorescence method. Both approaches are outlined in more detail below;
Human 5-lipoxygenase (Cayman, Cat#60402) produced in insect cells was pre-incubated with compound for 15 min at RT in incubation buffer (50 mM Tris-Cl, pH 7.4, 2 mM CaCl2, 0.1 mM ATP, 1% DMSO). The enzymatic reaction was started by adding arachidonic acid to a final concentration of 3 uM. After 5 min of incubation at 37° C., the reaction was stopped by heatinactivation at 80° C. for 5 min. LTB4 levels were quantified by using LTB4 EIA kit (Cayman, Cat#520111) as instructed and/or LTB4 levelswere measured with LC/MS/MS using Quattro Premier™ XE tandem quadrupole mass spectrometer equipped with Acquity UPLC system (Waters, Milford, Mass.). The method was slightly modified as reported previously (Zweifel et al., 2008, Willey et al., 2008, Chappell et al, 2011). Briefly, chromatographic separation was carried out with Acquity UPLC BEH Shield RP18 Column (2.1 mm×50 mm, 1.7 μm particle size, Waters, Milford, Mass.). Sample injection volume was 10 μl, the column temperature was 35° C., the mobile phase A consisted of water with 0.1% formic acid and the mobile phase B consisted of acetonitrile with 0.1% formic acid. Flow rate was 0.4 mL/min and the gradient condition was as follows.
Relative quantification of LTB4 and LTB4-d4 (Internal Standard) was done using multi reaction monitoring (MRM) of the transitions of m/z 335→195 for LTB4, 339→197 for LTB4-d4 in electrospray ionization (ESI) negative mode. Desolvation temperature was 400° C., source temperature was 130° C. Capillary voltage, cone voltage, and collision voltage were 3.5 kV, 30V, and 20 eV, respectively. Nitrogen was used for desolvation (750 L/h) and cone (50 L/h) gas. Argon was used for collision gas (0.22 ml/min). The dwell time was 10 ms.
Besides the two methods quantifying LTB4 level, a fluorescence assay measuring 5-HpETE was introduced for high-throughput screening in a 384 well microplate format (Pufahl et al., 2007). For nonspecific ester cleavage of the acetate groups in H2DCFDA, the insect cell lysate expressing human 5-LO (Cayman Cat#60402) was incubated with H2DCFDA (50 mM Tris-Cl, pH 7.5, 2 mM CaCl2, 20 uM H2DCFDA, 500 mU 5-LO per reaction) for 5 minutes. Compound and enzyme mixture were pre-incubated for 5 minutes, and the enzymatic reaction was initiated by addition of ATP and arachidonic acid to a final concentration of 100 uM and 3 uM, respectively. After 5 minutes of incubation, the fluorescence was measured using Spectramax M5 (Molecular Device, Ex/Em=485 nm/530 nm). All steps were carried out at room temperature.
A total of 378 compounds were initially tested at a single concentration of 10 uM in duplicate with the results summarized in Table 1. From these 378 compounds, 53 compounds plus an additional 25 were selected for confirmation of activity by 6 or 11 point dose response in duplicate with the corresponding IC50 values outlined in Table 2.
In turn, `CCc1nc2ccc(Cl)cn2c1C(=O)NCc1ccc(N2CCC(C)(O)CC2)cc1` [compound 321, 6-chloro-2-ethyl-N-(4-(4-hydroxy-4-methylpiperidin-1-yl)benzyl)imidazo[1,2-a]pyridine-3-carboxamide] had an inhibition at 10 µM of under 40%.

For the compound `CCc1nc2cnccn2c1C(=O)NCc1ccc(-c2ccc(Cl)cc2)cc1` [compound 71, N-((4′-Chlorobiphenyl-4-yl)methyl)-2-ethylimidazo[1,2-a]pyrazine-3-carboxamide], the inhibition at 10 µM was under 40%.

`CCc1nc2ccc(Cl)cn2c1C(=O)NCc1ccc(N2CCCCC2C)cc1` (stereo not drawn) [compound 251, 6-chloro-2-ethyl-N-(4-(2-methylpiperidin-1-yl)benzyl)imidazo[1,2-a]pyridine-3-carboxamide] had an inhibition at 10 µM of under 40%.

The compound `CCc1nc2cc(Cl)ccn2c1C(=O)NCc1ccc(N2CCCCCC2)cc1` [compound 193, N-(4-(Azepan-1-yl)benzyl)-7-chloro-2-ethylimidazo[1,2-a]pyridine-3-carboxamide] showed an inhibition at 10 µM of over 69%.

`CCc1nc2ccc(Cl)cn2c1C(=O)N1CCC(OCc2ccccc2F)CC1` [compound 337, (6-chloro-2-ethylimidazo[1,2-a]pyridin-3-yl)(4-((2-fluorobenzyl)oxy)piperidin-1-yl)methanone] yielded an inhibition at 10 µM of under 40%.

Consider `CCc1nc2cc(Cl)ccn2c1C(=O)NCc1ccc(-c2ccc(C(F)(F)F)cc2)cc1` [compound 111, 7-Chloro-2-ethyl-N-((4′-(trifluoromethyl)biphenyl-4-yl)methyl)imidazo[1,2-a]pyridine-3-carboxamide], for which the inhibition at 10 µM is under 40%.

`CCc1nc2ccc(Cl)cn2c1C(=O)NCc1ccc(N2CCC(NC(=O)Cc3ccc(F)cc3)CC2)cc1` [compound 316, 6-chloro-2-ethyl-N-(4-(4-(2-(4-fluorophenyl)acetamido)piperidin-1-yl)benzyl)imidazo[1,2-a]pyridine-3-carboxamide]: the inhibition at 10 µM was under 40%.

Compound `O=C(NCc1ccc(-c2ccccc2)cc1)c1c(C(F)(F)F)nc2ccc(Cl)cn12` [compound 80, N-(Biphenyl-4-ylmethyl)-6-chloro-2-(trifluoromethyl)imidazo[1,2-a]pyridine-3-carboxamide] had an inhibition at 10 µM of under 40%.

`CCOC(=O)c1c(C)nc2cc(-c3ccccc3)ccn12` [compound 18, Ethyl 2-methyl-7-phenylimidazo[1,2-a]pyridine-3-carboxylate]: the inhibition at 10 µM was 40 to 69%.

Regarding `CCc1nc2cc(Cl)ccn2c1C(=O)NCc1ccc(-n2cc3c(c2)CCCC3)cc1` [compound 217, 7-Chloro-2-ethyl-N-(4-(4,5,6,7-tetrahydro-2H-isoindol-2-yl)benzyl)imidazo[1,2-a]pyridine-3-carboxamide], the inhibition at 10 µM is over 69%.

On to `CCc1nc2ccc(Cl)cn2c1C(=O)NCc1ccc(N2CCC(c3ccc(OC(F)(F)F)cc3)CC2)cc1` [compound 267, 6-Chloro-2-ethyl-N-(4-(4-(4-(trifluoromethoxy)phenyl)piperidin-1-yl)benzyl)imidazo[1,2-a]pyridine-3-carboxamide], for which the inhibition at 10 µM was under 40%.

Consider `CCc1nc2ccc(Cl)cn2c1C(=O)N1CCC(OCc2cccc(F)c2)CC1` [compound 336, (6-chloro-2-ethylimidazo[1,2-a]pyridin-3-yl)(4-((3-fluorobenzyl)oxy)piperidin-1-yl)methanone], for which the inhibition at 10 µM is under 40%.

For the compound `CCc1nc2cc(Cl)ccn2c1CNc1ccc(NC2CCN(c3ccc(F)cc3)CC2)cc1` [compound 375, N1-((7-chloro-2-ethylimidazo[1,2-a]pyridin-3-yl)methyl)-N4-(1-(4-fluorophenyl)piperidin-4-yl)benzene-1,4-diamine], the inhibition at 10 µM is over 69%.

Consider `CCc1nc2ccc(Cl)cn2c1C(=O)NCc1ccc(N2CCCCC2)cc1` [compound 74, 6-Chloro-2-ethyl-N-(4-(piperidin-1-yl)benzyl)imidazo[1,2-a]pyridine-3-carboxamide], for which the inhibition at 10 µM is under 40%.

On to `CCc1nc2ccc(Cl)cn2c1C(=O)NCc1ccc(N2CCC(Oc3ccc(OC(F)(F)F)cc3)CC2)cc1` [compound 122, 6-Chloro-2-ethyl-N-(4-(4-(4-(trifluoromethoxy)phenoxy)piperidin-1-yl)benzyl)imidazo[1,2-a]pyridine-3-carboxamide], for which the inhibition at 10 µM lay in the range of 40 to 69%.

In turn, `CCc1nc2ccc(Cl)cn2c1C(=O)NCc1ccc(N2CCC(O)(C(C)(C)C)CC2)cc1` [compound 322, N-(4-(4-(tert-butyl)-4-hydroxypiperidin-1-yl)benzyl)-6-chloro-2-ethylimidazo[1,2-a]pyridine-3-carboxamide] showed an inhibition at 10 µM of under 40%.

Compound `CCc1nc2c(-c3ccncc3)cccn2c1C(=O)NCc1ccc(N2CCN(c3ccc(F)cc3)CC2)cc1` [compound 283, 2-Ethyl-N-(4-(4-(4-fluorophenyl)piperazin-1-yl)benzyl)-8-(pyridin-4-yl)imidazo[1,2-a]pyridine-3-carboxamide] showed an inhibition at 10 µM of under 40%.

With `CCc1nc2cc(Cl)ccn2c1C(=O)NCc1ccc(N2CCC(Oc3ccc(OC(F)(F)F)cc3)CC2)cc1` [compound 123, 7-Chloro-2-ethyl-N-(4-(4-(4-(trifluoromethoxy)phenoxy)piperidin-1-yl)benzyl)imidazo[1,2-a]pyridine-3-carboxamide], the inhibition at 10 µM is over 69%.

For the compound `CCc1nc2ccc(Cl)cn2c1C(=O)NCC1CCCc2c1cnn2-c1ccc(F)cc1` (stereo not drawn) [compound 149, 6-Chloro-2-ethyl-N-((1-(4-fluorophenyl)-4,5,6,7-tetrahydro-1H-indazol-4-yl)methyl)imidazo[1,2-a]pyridine-3-carboxamide], the inhibition at 10 µM was in the range of 40 to 69%.

The compound `CCc1nc2c(OC)cccn2c1C(=O)NCc1ccc(N2CCOCC2)cc1` [compound 262, 2-Ethyl-8-methoxy-N-(4-morpholinobenzyl)imidazo[1,2-a]pyridine-3-carboxamide] yielded an inhibition at 10 µM of under 40%.

The compound `CCc1nc2ccc(F)cn2c1C(=O)NCc1ccc(OC(F)(F)F)cc1` [compound 120, 2-Ethyl-6-fluoro-N-(4-(trifluoromethoxy)benzyl)imidazo[1,2-a]pyridine-3-carboxamide] came in with an inhibition at 10 µM of 40 to 69%.

With `CCc1nc2cc(Cl)ccn2c1C(=O)NCc1ccc(Br)cc1` [compound 96, N-(4-Bromobenzyl)-7-chloro-2-ethylimidazo[1,2-a]pyridine-3-carboxamide], the inhibition at 10 µM is 40 to 69%.

`CCc1nc2cc(Cl)ccn2c1C(=O)NCc1ccc(-c2ccc(F)cc2)cc1` [compound 56, 7-Chloro-2-ethyl-N-((4′-fluorobiphenyl-4-yl)methyl)imidazo[1,2-a]pyridine-3-carboxamide] came in with an inhibition at 10 µM of under 40%.

The compound `CC(C)(C)c1ccc(CNC(=O)c2c(C(F)(F)F)nc3ccc(Cl)cn23)cc1` [compound 81, N-(4-tert-Butylbenzyl)-6-chloro-2-(trifluoromethyl)imidazo[1,2-a]pyridine-3-carboxamide] displayed an inhibition at 10 µM of under 40%.

The same assay, now with this note: 6 or 11 point dose response in duplicate.
With `CCc1nc2cc(Cl)ccn2c1C(=O)NCc1ccc(N2CCCCCC2)cc1` [compound 193, N-(4-(Azepan-1-yl)benzyl)-7-chloro-2-ethylimidazo[1,2-a]pyridine-3-carboxamide], the IC50 is over 20 µM.

As for `CCc1nc2cc(Cl)ccn2c1C(=O)NCc1ccc(-n2cc3c(c2)CCCC3)cc1` [compound 217, 7-Chloro-2-ethyl-N-(4-(4,5,6,7-tetrahydro-2H-isoindol-2-yl)benzyl)imidazo[1,2-a]pyridine-3-carboxamide], the concentration for half-maximal inhibition (IC50) was 1 to 20 µM.

The compound `CCc1nc2cc(Cl)ccn2c1C(=O)NCc1ccc(N2CCC(Oc3ccc(OC(F)(F)F)cc3)CC2)cc1` [compound 123, 7-Chloro-2-ethyl-N-(4-(4-(4-(trifluoromethoxy)phenoxy)piperidin-1-yl)benzyl)imidazo[1,2-a]pyridine-3-carboxamide] had an IC50 of over 20 µM.
